The record followed here is ChEMBL document CHEMBL5338751, “Discovery of the First-in-Class Intestinal Restricted FXR and FABP1 Dual Modulator ZLY28 for the Treatment of Nonalcoholic Fatty Liver Disease” (J Med Chem, 2023).

Structures are written as SMILES. Activity calls are given as the source filed them. No cut-off for these calls is given here.

Series [1] is described as follows: Drug concentration in C57BL/6 mouse ileum at 20 mg/kg, po administered for 5 days and measured after 1 hr post final dose by LC-MS analysis. The format is ADME, organism-based. Conditions: time 5 day, read-out: Ct.
For series [2], the system named is Mus musculus. Put plainly: Anti-NASH activity in western diet and CCl4-induced nonalcoholic steatohepatitis C57BL/6 mouse assessed as alleviation of ballooning at 20 mg/kg, po administered for 12 weeks starting from week 8 and change in dose for every 5 days. The series is classed as functional, organism-based. To be noted: time 4.0 weeks.
In series [3] the target is T1, Peroxisome proliferator-activated receptor gamma (Homo sapiens, UniProt P37231).
T1 sequence (P37231 whole entry): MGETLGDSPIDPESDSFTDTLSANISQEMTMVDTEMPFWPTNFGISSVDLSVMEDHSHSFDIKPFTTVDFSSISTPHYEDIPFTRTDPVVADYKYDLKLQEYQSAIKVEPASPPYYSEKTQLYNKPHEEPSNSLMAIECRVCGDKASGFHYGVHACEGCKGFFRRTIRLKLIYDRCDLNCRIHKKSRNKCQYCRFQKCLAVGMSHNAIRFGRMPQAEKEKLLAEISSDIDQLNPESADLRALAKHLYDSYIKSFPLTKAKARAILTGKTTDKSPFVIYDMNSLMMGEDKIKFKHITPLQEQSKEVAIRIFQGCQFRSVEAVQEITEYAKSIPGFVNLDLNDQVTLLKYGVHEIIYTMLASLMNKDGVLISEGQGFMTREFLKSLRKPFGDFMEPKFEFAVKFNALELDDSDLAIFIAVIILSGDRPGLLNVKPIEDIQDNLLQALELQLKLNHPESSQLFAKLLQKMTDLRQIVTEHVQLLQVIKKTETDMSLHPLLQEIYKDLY
The experiment in a line: Agonist activity at PPARgamma (unknown origin) transfected in HEK293 cells incubated for 18 hrs by renilla/firefly based dual-glo luciferase assay. The series is classed as cell-based.

Series [4] can be described thus: Subacute toxicity in ICR mouse assessed as changes in organ to body weight ratio at 500 mg/kg/day, po administered for 14 days. The series is classed as organism-based. Conditions: in vivo, 336 h, time 14 day.
The target of a further series is Glucocorticoid receptor (Homo sapiens, UniProt P04150). The experiment in a line: Activation of Gal-DBD and NHRLBD fused GR (unknown origin) transfected in African green monkey CV-1 cells by luciferase reporter assay. The format is cell-based.
Sequence of Glucocorticoid receptor (P04150 whole entry, the tested form may be a part): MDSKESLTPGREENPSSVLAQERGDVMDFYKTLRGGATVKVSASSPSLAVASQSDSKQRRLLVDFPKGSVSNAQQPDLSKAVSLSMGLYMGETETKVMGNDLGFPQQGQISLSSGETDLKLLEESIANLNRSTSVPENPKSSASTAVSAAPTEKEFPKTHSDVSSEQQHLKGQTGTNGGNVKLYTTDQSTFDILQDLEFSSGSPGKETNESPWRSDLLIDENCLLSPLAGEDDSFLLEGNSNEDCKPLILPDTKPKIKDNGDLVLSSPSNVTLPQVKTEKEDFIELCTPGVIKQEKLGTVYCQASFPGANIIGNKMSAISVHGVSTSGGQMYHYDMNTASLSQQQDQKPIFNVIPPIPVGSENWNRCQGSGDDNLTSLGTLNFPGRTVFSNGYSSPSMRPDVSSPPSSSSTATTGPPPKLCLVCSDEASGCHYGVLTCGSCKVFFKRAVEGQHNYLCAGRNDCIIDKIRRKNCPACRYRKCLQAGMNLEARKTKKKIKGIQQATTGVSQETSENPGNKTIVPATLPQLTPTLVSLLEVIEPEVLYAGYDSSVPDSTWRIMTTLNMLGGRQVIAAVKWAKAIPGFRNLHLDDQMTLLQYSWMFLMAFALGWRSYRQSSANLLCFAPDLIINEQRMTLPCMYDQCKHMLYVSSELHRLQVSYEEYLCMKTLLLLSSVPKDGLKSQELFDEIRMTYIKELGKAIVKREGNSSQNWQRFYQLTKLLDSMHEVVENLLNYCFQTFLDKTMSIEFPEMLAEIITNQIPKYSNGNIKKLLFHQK
The nature of series [5]: Ratio of drug level in liver to plasma in C57BL/6 mouse at 20 mg/kg, po administered for 5 days and measured after 1 hr post final dose by LC-MS analysis.
Series [6] deals with T2, Bile acid receptor (Mus musculus) (UniProt Q60641).
T2 sequence (whole entry): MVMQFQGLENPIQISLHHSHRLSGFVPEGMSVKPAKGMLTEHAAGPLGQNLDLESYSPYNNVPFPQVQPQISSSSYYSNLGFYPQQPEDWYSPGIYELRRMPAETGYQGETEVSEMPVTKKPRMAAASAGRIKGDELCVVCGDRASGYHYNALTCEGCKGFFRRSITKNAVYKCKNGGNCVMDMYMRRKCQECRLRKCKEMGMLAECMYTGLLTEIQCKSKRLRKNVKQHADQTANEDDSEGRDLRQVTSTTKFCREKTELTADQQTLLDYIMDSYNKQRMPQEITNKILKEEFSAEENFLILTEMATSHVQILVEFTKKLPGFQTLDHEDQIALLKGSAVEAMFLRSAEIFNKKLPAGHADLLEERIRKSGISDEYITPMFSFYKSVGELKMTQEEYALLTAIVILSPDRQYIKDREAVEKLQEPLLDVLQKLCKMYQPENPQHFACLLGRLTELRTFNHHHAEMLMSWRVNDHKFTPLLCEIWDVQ
The experiment in a line: In vivo activation of FXR pathway in western diet and CCl4-induced nonalcoholic steatohepatitis C57BL/6 mouse model assessed as upregulation of OST-beta gene expression in ileum at 20 mg/kg, po administered for 12 weeks starting from week 8 and change in dose for every 5 days by RT-PCR analysis. The series is classed as functional, organism-based. Conditions: time 4.0 weeks.

Series [7] in a line: Metabolic stability in mouse liver microsomes assessed as parent compound remaining incubated for 1 hr by LC-MS analysis. The format is ADME, Microsome. Conditions: read-out: Stability.
For series [8], the target named is Free fatty acid receptor 1 (Homo sapiens, UniProt O14842). The experiment in a line: Agonist activity at human FFA1 stably expressed in CHO cells assessed as intracellular calcium flux by FLIPR assay. The series is classed as functional, cell-based.
Sequence of Free fatty acid receptor 1 (O14842 whole entry): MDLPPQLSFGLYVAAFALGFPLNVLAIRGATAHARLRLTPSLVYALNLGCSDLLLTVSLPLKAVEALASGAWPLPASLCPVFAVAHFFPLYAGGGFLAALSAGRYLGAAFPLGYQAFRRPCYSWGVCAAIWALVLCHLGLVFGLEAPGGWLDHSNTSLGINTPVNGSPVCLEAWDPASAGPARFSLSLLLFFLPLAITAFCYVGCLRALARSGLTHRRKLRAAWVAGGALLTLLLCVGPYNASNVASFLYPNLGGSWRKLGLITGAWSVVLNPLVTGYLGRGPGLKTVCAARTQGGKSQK
The target of series [9] is T2, Bile acid receptor (Mus musculus). The experiment in a line: In vivo activation of FXR pathway in western diet and CCl4-induced nonalcoholic steatohepatitis C57BL/6 mouse model assessed as upregulation of FGF15 gene expression in ileum at 20 mg/kg, po administered for 12 weeks starting from week 8 and change in dose for every 5 days by RT-PCR analysis. To be noted: time 4.0 weeks. The series is classed as functional, organism-based.

For series [10], the system named is Mus musculus. The experiment in a line: Anti-NASH activity in western diet and CCl4-induced nonalcoholic steatohepatitis C57BL/6 mouse assessed as reduction in IL6 level at 20 mg/kg, po administered for 12 weeks starting from week 8 and change in dose for every 5 days by ELISA. The format is functional, organism-based. Conditions: time 4.0 weeks.
Series [11] has as its system Mus musculus. Put plainly: Antioxidant activity in western diet and CCl4-induced nonalcoholic steatohepatitis C57BL/6 mouse model assessed as increase in SOD level at 20 mg/kg, po administered for 12 weeks starting from week 8 and change in dose for every 5 days. The format is functional, organism-based. To be noted: time 4.0 weeks.
A short description of series [12]: Metabolic stability in rhesus monkey liver microsomes assessed as parent compound remaining incubated for 1 hr by LC-MS analysis. The format is ADME, Macaca mulatta, Microsome. Conditions: read-out: Stability. (In general: Liver microsomes are vesicles of endoplasmic reticulum, rich in cytochrome P450 enzymes.)
The target in series [13] is G-protein coupled bile acid receptor 1 (Homo sapiens, UniProt Q8TDU6). Put plainly: Activation of TGR5 (unknown origin) transfected in human NCI-H716 cells assessed as increase in cAMP production incubated for 24 hrs by HTR-FRET assay. The series is classed as functional, cell-based.
Sequence of G-protein coupled bile acid receptor 1 (Q8TDU6 whole entry): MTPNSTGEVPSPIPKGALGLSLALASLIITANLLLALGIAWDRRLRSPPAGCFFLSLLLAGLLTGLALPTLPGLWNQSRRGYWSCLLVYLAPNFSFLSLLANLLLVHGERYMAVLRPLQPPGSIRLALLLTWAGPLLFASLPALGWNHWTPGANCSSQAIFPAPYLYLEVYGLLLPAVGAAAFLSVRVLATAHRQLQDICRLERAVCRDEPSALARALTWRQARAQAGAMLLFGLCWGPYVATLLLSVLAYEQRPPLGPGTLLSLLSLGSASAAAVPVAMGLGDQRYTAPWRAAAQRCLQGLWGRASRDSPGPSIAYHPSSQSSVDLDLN
The nature of series [14]: Subacute toxicity in ICR mouse assessed as changes in serum BUN level at 500 mg/kg/day, po administered for 14 days. To be noted: in vivo, 336 h, time 14 day. The series is classed as organism-based.
The next series addresses T3, Bile acid receptor (Homo sapiens, UniProt Q96RI1).
T3 sequence (Q96RI1 whole entry): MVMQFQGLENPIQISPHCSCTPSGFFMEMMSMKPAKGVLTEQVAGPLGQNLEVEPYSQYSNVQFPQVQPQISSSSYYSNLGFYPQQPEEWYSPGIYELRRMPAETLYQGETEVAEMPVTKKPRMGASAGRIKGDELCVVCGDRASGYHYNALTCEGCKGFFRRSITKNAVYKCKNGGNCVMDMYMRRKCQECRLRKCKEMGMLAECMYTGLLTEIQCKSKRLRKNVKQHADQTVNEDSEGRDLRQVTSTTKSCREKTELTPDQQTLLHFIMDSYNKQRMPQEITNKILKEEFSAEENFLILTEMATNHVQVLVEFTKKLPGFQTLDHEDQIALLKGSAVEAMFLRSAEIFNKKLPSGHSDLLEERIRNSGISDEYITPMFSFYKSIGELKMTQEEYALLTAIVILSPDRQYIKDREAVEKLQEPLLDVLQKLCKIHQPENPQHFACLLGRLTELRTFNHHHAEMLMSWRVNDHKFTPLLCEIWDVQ
The experiment in a line: Agonist activity at FXR-LBD (unknown origin) using fluorescein-coactivator peptide incubated for 3 hrs by TR-FRET assay. Background: Time-resolved FRET reads energy transfer from a long-lived donor to a nearby acceptor.

A short description of series [15]: Subacute toxicity in ICR mouse assessed as changes in food intake at 500 mg/kg/day, po administered for 14 days. The format is organism-based. Conditions: in vivo, 336 h, time 14 day.
Series [16] in a line: Subacute toxicity in ICR mouse assessed as reduction in serum TBIL level at 500 mg/kg/day, po administered for 14 days. The format is organism-based. To be noted: in vivo, 336 h, time 14 day.
The nature of series [17]: Metabolic stability in Beagle dog liver microsomes assessed as parent compound remaining incubated for 1 hr by LC-MS analysis. Conditions: read-out: Stability. The series is classed as ADME, Canis lupus familiaris, Microsome.

For `O=C(O)C1(c2cccc(-c3ccc(OCc4c(-c5c(Cl)cccc5Cl)noc4C4CC4)cc3)c2)CC1`, the concentration at 120 h in [1] came out at 996 ng/g. The result (in the series with Mus musculus [2]; in series [6]; in series [9]; with Mus musculus [10]; with Mus musculus [11]) was Active. The EC50 was over 10 µM in series [3]; over 10 µM on Glucocorticoid receptor; over 10 µM in series [8]; over 10 µM in [13]; 0.143 µM at Bile acid receptor. Besides, the Activity result in series [4], in series [14], in series [15] and in series [16] was “Non-Toxic” throughout. The Kp at 120 h in series [5] was determined as 5.1. In addition, the remaining at 1 h is 64.3% in series [7], 71% in [12] and 57.4% in [17].

One may read the EC50 as the concentration that produces a half-maximal response. The Kp is tissue or fluid exposure divided by exposure in the circulation.
